# Experimental data: article PMC5613062 (Investigational New Drugs, 2017)
# Read-outs that look alike come from different tables or passages of the source.
# How the values were obtained:
# tumor pERK = test system: tumor pERK; set-up: method as in Study ARRY-0401; conditions: 100 mg BD, Day 15 compared with pre-dose; 90% CI 50% to 93%; ref Study ARRY-0401; cited from earlier work
# Ki67 = test system: Ki67; set-up: method as in Study ARRY-0401; conditions: 100 mg BD; ref Study ARRY-0401; cited from earlier work
# [1] = set-up: method as in earlier work; conditions: ref IB; cited from earlier work
# [2] = set-up: method as in earlier work; conditions: cynomolgus monkeys dosed for up to one month; ref IB; cited from earlier work
# [3] = ref Study ARRY-0401, cited from earlier work
# [4] = set-up: method as in earlier work; conditions: daily oral administration in SBE-CD for 1 month, rats; ref IB; cited from earlier work
# [5] = Pharmacokinetics alone and in combination, selumetinib + temsirolimus arm; format: in vivo, human; conditions: for AUC(0–8) / AUC(0–12) / Cmax / AUC(0-t): geometric mean (% CV); for tmax: median (range); for PK parameters when administered alone and in combination: selumetinib + temsirolimus arm; for AUC(0-t): read-out: AUC(0–8)
# Protocol: (§1) PK parameters were derived using non-compartmental analysis. Cmax and tmax were determined by visual inspection of the plasma concentration-time profiles. AUC(0–12) was calculated by the linear trapezoidal rule. Where more than one maximum occurred, the reported value was assigned to the first occurrence.
# CYP1A2 = test system: CYP1A2; set-up: method as in earlier work; conditions: weak inhibition; ref IB; cited from earlier work
# [6] = Pharmacokinetics alone and in combination, selumetinib + erlotinib arm; conditions: for tmax: median (range)
# Protocol: as §1
# cell viability = test system: cell viability; set-up: method as in earlier work; conditions: more active than parent; ref IB; cited from earlier work
# ERK phosphorylation = test system: ERK phosphorylation; set-up: method as in earlier work; conditions: cultured cells; more active than parent; ref IB; cited from earlier work
# [7] = set-up: method as in LoRusso et al 2005; conditions: Phase I-II trial; ref LoRusso et al 2005; cited from earlier work
# [8] = set-up: method as in product label; conditions: ref product label; cited from earlier work
# [9] = ref product label, cited from earlier work
# [10] = dosed alone, selumetinib 50 mg cohort (N = 25), temsirolimus 25 mg IV
# [11] = dosed alone, selumetinib 75 mg cohort (N = 6), temsirolimus 25 mg IV
# [12] = dosed in combination, selumetinib 50 mg BID (N = 22) + temsirolimus 25 mg IV
# [13] = dosed in combination, selumetinib 75 mg BID (N = 5) + temsirolimus 25 mg IV
# [14] = geometric mean (% CV), dosed alone, selumetinib 50 mg cohort (N = 14), erlotinib 100 mg QD
# [15] = geometric mean (% CV), dosed alone, selumetinib 75 mg cohort (N = 6), erlotinib 100 mg QD
# [16] = geometric mean (% CV), dosed in combination, selumetinib 50 mg BID (N = 12) + erlotinib 100 mg QD
# [17] = geometric mean (% CV), dosed in combination, selumetinib 75 mg BID (N = 6) + erlotinib 100 mg QD
# [18] = geometric mean, QD cohorts, dosed alone, selumetinib 50 mg cohort (N = 7), erlotinib 100 mg QD
# [19] = geometric mean, QD cohorts, dosed alone, selumetinib 100 mg cohort (N = 6), erlotinib 100 mg QD
# [20] = geometric mean, QD cohorts, dosed alone, selumetinib 150 mg cohort (N = 13), erlotinib 100 mg QD
# [21] = geometric mean, QD cohorts, in combination, selumetinib 50 mg (N = 6) + erlotinib 100 mg QD
# [22] = geometric mean, QD cohorts, in combination, selumetinib 100 mg (N = 6) + erlotinib 100 mg QD
# [23] = geometric mean, QD cohorts, in combination, selumetinib 150 mg (N = 12) + erlotinib 100 mg QD
compound,measurement,setting,value
Cn1cnc2c(F)c(Nc3ccc(Br)cc3Cl)c(C(=O)NOCCO)cc21 [AZD6244 free-base],"inhibition of tumor pERK, geometric mean",tumor pERK,81%
same,patients with reduction in Ki67,Ki67,9/20
same,patients with reduction in Ki67 ≥50% of pre-dose,Ki67,5 patients
same,solubility,[1],limited solubility
same,tissue mineralization,[2],not apparent
same,patients with SD,"[3]; RECIST, as of 30 September 2006",17 patients
same,best overall response,[3]; RECIST,stable disease (SD)
same,patients with long term (≥5 months) SD,[3]; RECIST,9 patients
same,MTD,[3]; free-base mix and drink formulation,100 mg BD
same,tolerability,[4],well tolerated
same,toxicity findings,[4],soft stools and gastrointestinal mucosal mineralization
O=C(NOCCO)c1cc2nc[nH]c2c(F)c1Nc1ccc(Br)cc1Cl [N-desmethyl selumetinib],AUC(0–8),[5]; [10],124.3 (80.50) ng•h/mL
same,AUC(0–12),[5]; [10],168.2 (54.21) [23] ng•h/mL
same,Cmax,[5]; [10],35.28 (109.00) ng/mL
same,AUC(0–8),[5]; [11],231.1 (68.07) ng•h/mL
same,AUC(0–12),[5]; [11],269.4 (62.60) ng•h/mL
same,Cmax,[5]; [11],75.34 (88.64) ng/mL
same,AUC(0–8),[5]; [12],129.4 (59.96) ng•h/mL
same,AUC(0–12),[5]; [12],168.2 (57.86) [14] ng•h/mL
same,Cmax,[5]; [12],38.51 (81.60) ng/mL
same,AUC(0–8),[5]; [13],167.8 (51.40) ng•h/mL
same,AUC(0–12),[5]; [13],190.5 (55.06) [4] ng•h/mL
same,Cmax,[5]; [13],48.36 (65.63) ng/mL
same,tmax,[5]; [10],1.5 (1.0–8.0) h
same,tmax,[5]; [11],1.5 (1.0–4.0) h
same,tmax,[5]; [12],2.0 (1.0–2.0) h
same,tmax,[5]; [13],2.0 (1.0–2.0) h
same,PK parameters when administered alone and in combination,[5],similar
same,plasma concentrations/exposure as % of AZD6244 concentrations/exposure,[3]; Part B of the study,≤ 10%
same,IC50,CYP1A2,18.9 µM
same,AUC(0–8),[6]; [14],141.3 (41.79) [13] ng•h/mL
same,AUC(0–12),[6]; [14],173.4 (39.75) [12] ng•h/mL
same,Cmax,[6]; [14],41.69 (60.64) ng/mL
same,AUC(0–8),[6]; [15],195.9 (36.04) ng•h/mL
same,AUC(0–12),[6]; [15],223.9 (34.90) ng•h/mL
same,Cmax,[6]; [15],66.80 (75.74) ng/mL
same,AUC(0–8),[6]; [16],130.4 (39.09) ng•h/mL
same,AUC(0–12),[6]; [16],153.3 (39.37) ng•h/mL
same,Cmax,[6]; [16],43.37 (47.62) ng/mL
same,AUC(0–8),[6]; [17],227.5 (57.77) ng•h/mL
same,AUC(0–12),[6]; [17],262.7 (53.29) ng•h/mL
same,Cmax,[6]; [17],72.94 (91.01) ng/mL
same,AUC(0–8),[6]; [18],156 ng·h/mL
same,AUC(0–12),[6]; [18],181 ng·h/mL
same,Cmax,[6]; [18],45.6 ng/mL
same,AUC(0–8),[6]; [19],347 ng·h/mL
same,AUC(0–12),[6]; [19],401 ng·h/mL
same,Cmax,[6]; [19],109 ng/mL
same,AUC(0–8),[6]; [20],279 ng·h/mL
same,AUC(0–12),[6]; [20],331 ng·h/mL
same,Cmax,[6]; [20],79.6 ng/mL
same,AUC(0–8),[6]; [21],149 ng·h/mL
same,AUC(0–12),[6]; [21],181 ng·h/mL
same,Cmax,[6]; [21],44.5 ng/mL
same,AUC(0–8),[6]; [22],404 ng·h/mL
same,AUC(0–12),[6]; [22],454 ng·h/mL
same,Cmax,[6]; [22],129 ng/mL
same,AUC(0–8),[6]; [23],286 ng·h/mL
same,AUC(0–12),[6]; [23],344 ng·h/mL
same,Cmax,[6]; [23],68.3 ng/mL
same,tmax,"[6]; QD cohorts, dosed alone, selumetinib 50 mg cohort (N = 7), erlotinib 100 mg QD",1.50 (1.00–4.00) h
same,tmax,"[6]; QD cohorts, dosed alone, selumetinib 100 mg cohort (N = 6), erlotinib 100 mg QD",1.50 (1.50–4.00) h
same,tmax,"[6]; QD cohorts, dosed alone, selumetinib 150 mg cohort (N = 13), erlotinib 100 mg QD",1.50 (1.00–8.00) h
same,tmax,"[6]; QD cohorts, in combination, selumetinib 50 mg (N = 6) + erlotinib 100 mg QD",1.50 (1.50–8.00) h
same,tmax,"[6]; QD cohorts, in combination, selumetinib 100 mg (N = 6) + erlotinib 100 mg QD",1.50 (1.00–2.00) h
same,tmax,"[6]; QD cohorts, in combination, selumetinib 150 mg (N = 12) + erlotinib 100 mg QD",2.00 (1.00–4.00) h
same,tmax,"[6]; dosed alone, selumetinib 50 mg cohort (N = 14), erlotinib 100 mg QD",1.5 (1.0–12.0) h
same,tmax,"[6]; dosed alone, selumetinib 75 mg cohort (N = 6), erlotinib 100 mg QD",1.45 (1.0–2.0) h
same,tmax,"[6]; dosed in combination, selumetinib 50 mg BID (N = 12) + erlotinib 100 mg QD",1.25 (1.0–4.0) h
same,tmax,"[6]; dosed in combination, selumetinib 75 mg BID (N = 6) + erlotinib 100 mg QD",1.5 (1.0–2.0) h
same,PK parameters when administered alone and in combination,[6]; selumetinib + erlotinib arm,similar
same,"activity relative to AZD6244 parent compound, inhibition of cell viability",cell viability,approximately 5 fold
same,"activity relative to AZD6244 parent compound, inhibition of ERK phosphorylation",ERK phosphorylation,approximately 3 fold
O=C(NOC[C@H](O)CO)c1ccc(F)c(F)c1Nc1ccc(I)cc1F [PD-0325901],patients reporting rash,[7],49%
CO[C@H]1C[C@@H]2CC[C@@H](C)[C@@](O)(O2)C(=O)C(=O)N2CCCC[C@H]2C(=O)O[C@H]([C@H](C)C[C@@H]2CC[C@@H](OC(=O)C(C)(CO)CO)[C@H](OC)C2)CC(=O)[C@H](C)/C=C(\C)[C@@H](O)[C@@H](OC)C(=O)[C@H](C)C[C@H](C)/C=C/C=C/C=C/1C [Temsirolimus],Cmax,[5]; [11],749.2 (24.61) [5] ng/mL
same,AUC(0-t),"[5]; human, plasma, iv, dosed alone, selumetinib 50 mg cohort (N = 25), temsirolimus 25 mg IV",1580 ng·h/mL
same,AUC(0–12),"[5]; human, plasma, iv, dosed alone, selumetinib 50 mg cohort (N = 25), temsirolimus 25 mg IV, read-out: AUC(0–12)",1880 ng·h/mL
same,Cmax,"[5]; human, plasma, iv, dosed alone, selumetinib 50 mg cohort (N = 25), temsirolimus 25 mg IV, read-out: Cmax",669 ng/mL
same,AUC(0-t),"[5]; human, plasma, iv, dosed alone, selumetinib 75 mg cohort (N = 6), temsirolimus 25 mg IV",1740 ng·h/mL
same,AUC(0–12),"[5]; human, plasma, iv, dosed alone, selumetinib 75 mg cohort (N = 6), temsirolimus 25 mg IV, read-out: AUC(0–12)",1910 ng·h/mL
same,AUC(0-t),"[5]; human, plasma, iv, dosed in combination, selumetinib 50 mg BID (N = 22) + temsirolimus 25 mg IV",1460 ng·h/mL
same,AUC(0–12),"[5]; human, plasma, iv, dosed in combination, selumetinib 50 mg BID (N = 22) + temsirolimus 25 mg IV, read-out: AUC(0–12)",1610 ng·h/mL
same,Cmax,"[5]; human, plasma, iv, dosed in combination, selumetinib 50 mg BID (N = 22) + temsirolimus 25 mg IV, read-out: Cmax",651 ng/mL
same,AUC(0-t),"[5]; human, plasma, iv, dosed in combination, selumetinib 75 mg BID (N = 5) + temsirolimus 25 mg IV",1540 ng·h/mL
same,AUC(0–12),"[5]; human, plasma, iv, dosed in combination, selumetinib 75 mg BID (N = 5) + temsirolimus 25 mg IV, read-out: AUC(0–12)",1740 ng·h/mL
same,Cmax,"[5]; human, plasma, iv, dosed in combination, selumetinib 75 mg BID (N = 5) + temsirolimus 25 mg IV, read-out: Cmax",695 ng/mL
same,tmax,[5]; [12],1.0 (0.5–1.5) h
same,tmax,[5]; [13],0.5 (0.5–1.0) h
same,PK parameters when administered alone and in combination,[5],similar
same,most common (incidence ≥30%) adverse reactions,[8],"rash, asthenia, mucositis, nausea, edema, and anorexia"
CN(C)/N=N/c1[nH]cnc1C(N)=O [dacarbazine],incidence of hepatic toxicity with hepatic vein thrombosis and hepatocellular necrosis resulting in death,[9]; patients treated,approximately 0.01%
same,"patients affected by anorexia, nausea, and vomiting",[9]; with the initial few doses,Over 90%
